Measurements taken from US9127040B2, “Regulation of sodium channels by PLUNC proteins” (The University of North Carolina at Chapel Hill, priority 2011, dated 2015).
Ends that are not written are not given here.

B1: SPLUNC1: human SPLUNC1 (SEQ ID NO:1), 256 amino acid secreted PLUNC family protein; rSPLUNC1 is the purified V5/6His-tagged recombinant form (protein, listed as Homo sapiens)
chain: MFQTGGLIVFYGLLAQTMAQFGGLPVPLDQTLPLNVNPALPLSPTGLAGSLTNALSNGLLSGGLLGILENLPLLDILKPGGGTSGGLLGGLLGKVTSVIPGLNNIIDIKVTDPQLLELGLVQSPDGHRLYVTIPLGIKLQVNTPLVGASLLRLAVKLDITAEILAVRDKQERIHLVLGDCTHSPGSLQISLLDGLGPLPIQGLLDSLTGILNKVLPELVQGNVCPLVNEVLRGLDITLVHDIVNMLIHGLQFVIKV
modifications: V5/6His tag in recombinant form
notes: rSPLUNC1 is the purified V5/6His-tagged recombinant form

Columns and labels:
rat ASIC3 = molecular target: T1, rat ASIC3 (Rattus norvegicus, UniProt O35240); assay: Whole-cell patch-clamp currents in CHO cells stably expressing ASIC; type: cell-based; settings: 10 μM S18
T1 construct: expressed in transfected cells
Procedure: (§1) Previously described cell lines expressing human ASIC1a, human ASIC2a and rat ASIC3 were used in these experiments (Poirot, J. Biol. Chem. 279: 38448 (2004))). Electrophysiological measurements were carried out with an EPC10 patch-clamp amplifier (HEKA Electronics, Lambrecht, Germany) as previously described (Blanchard et al., Pflugers Arch. 461:123 (2011)).
(§2) Whole-cell currents were measured from CHO cells stably expressing acid-sensing ion channel (ASIC) subunits, voltage clamped to −60 mV. Stimulations lasted 5 s and were performed every 45 s. Cells were stimulated three times with pH 6.6 (ASIC1a and -3) or pH 4 (ASIC2a). Between stimulations, cells were returned to a pH 7.4 conditioning solution for […] recovery from inactivation. The conditioning solution was then switched to a pH 7.4 solution containing 10 μM S18. Three stimulations in the presence of 10 μM S18 were performed before washing off the peptide. Current amplitudes of the above described experiments were normalized to the first control value and plotted as a function of time (FIG. 28B). S18 was added at T=0 s. ASIC1a=▪, ASIC2a=●, ASIC3=▴, all n=3. Cells were incubated for 40 s in a pH 7.1 (ASIC1a and -3) or 5.6 (ASIC2a) conditioning solution, then activated using an acidic stimulus (pH 5 for ASIC1a and -3, and pH 4 for ASIC2a) (FIG. 28C). Experiments were performed with or without 10 μM S18 in the conditioning solution. Current amplitudes measured during the acidic stimulus were normalized to the control amplitude obtained with a pH 7.4 conditioning solution. Open bars=control, closed bars=S18, all n=3-4. […] Stimulations were performed every 45 s. The protocol was performed with or without 10 μM S18 in all solutions. The average current is plotted as a function of time. […] Control=∘, S18=▪, all n=3-5.

human ASIC2a = molecular target: T2, human ASIC2a (Homo sapiens, UniProt Q16515); assay: as above; type: cell-based; settings: 10 μM S18
T2 construct: expressed in transfected cells
Procedure: as §1, §2

human ASIC1a = molecular target: T3, human ASIC1a (Homo sapiens, UniProt P78348); assay: as above; type: cell-based; settings: 10 μM S18
T3 construct: expressed in transfected cells
Procedure: as §1, §2

[1] = Urinary Na+ excretion (natriuresis) in anesthetized mice after intravenous infusion; type: in vivo; settings: 250 nmol/g BW/h intravenous infusion, unconscious mice
Procedure: To study the effects of SPLUNC1-derived peptides on the in vivo kidney, mice were anesthetized. After a baseline 45 min control clearance period, S18-type peptide or amiloride were infused intravenously over 30 min and the natriuretic response recorded over the subsequent 2-3 h.
Urinary Na^+ output was measured in unconscious mice (FIG. 32). Amiloride (38 nmol/g BW/h; ▪) and S18 (250 nmol/g BW/h; ▴) were added during the infusion period and urinary Na^+ excretion (UNaV) was measured throughout.

NL HBECs = assay: ASL height by confocal microscopy in normal lung (NL) HBECs; type: cell-based, human; settings: SPLUNC1 shRNA knockdown, 50 ng/ml rSPLUNC1 added to ASL
Procedure: To label airway surface liquid, Ringer containing Texas Red-dextran (2 mg/ml; Invitrogen) was added to human bronchial epithelial culture mucosal surfaces. Perfluorocarbon was added mucosally to prevent evaporation of the airway surface liquid and the culture placed in a chamber containing 100 μl Ringer on the stage of a Leica SP5 confocal microscope with a 63× glycerol immersion objective. 5 points per culture were scanned and an average airway surface liquid height determined. For confocal microscopy human bronchial epithelial cultures were bathed serosally in a modified Ringer solution containing (mM): 116 NaCl, 10 NaHCO3, 5.1 KCl, 1.2 CaCl2, 1.2 MgCl2, 20 TES, 10 glucose, pH 7.4). At all other times, human bronchial epithelial cultures were maintained in a modified BEGM growth medium which contained 24 mM NaHCO3 gassed with 5% CO2.
To label the ASL, PBS containing 10 kDa Rhodamine dextran (0.2-2 mg/mL; Invitrogen, Carlsbad, Calif., USA) was added to HBEC mucosal surfaces as previously described (Tarran et al., Mol. Cell 8:149 (2001)). When added, peptides with or without 100 nM neutrophil elastase, 1 U/mL aprotinin, activated neutrophil supernatant (ANS) (Haynes et al., Am. J. Physiol. Heart Circ. Physiol. 294:H379 (2008)) or 10 μM sivelestat (Sigma-Aldrich, St Louis, Mo., USA) were added to the mucosal surface along with the Rhodamine dextran. Bumetanide (100 μM) was added to the serosal solution.

trypsin = assay: Cell-free fluorogenic assay, trypsin cleavage of BGAR-MCA; type: biochemical; settings: 50 ng/ml rSPLUNC1 or 2 U/ml aprotinin; 1.0 or 0.3 U/ml trypsin
Procedure: For cell-free assays, reactions were carried out in 50 μl Ringer in a 96 well plate format with 100 μM BGAR-MCA. To measure endogenous protease activity in human bronchial epithelial cultures, 30 μl Ringer with 100 μM BGAR-MCA were placed directly onto the mucosal surfaces of human bronchial epithelial cultures grown on 12 mm T-clear inserts and the cultures were assayed in 12 well plates.

T3 sequence (P78348 whole entry): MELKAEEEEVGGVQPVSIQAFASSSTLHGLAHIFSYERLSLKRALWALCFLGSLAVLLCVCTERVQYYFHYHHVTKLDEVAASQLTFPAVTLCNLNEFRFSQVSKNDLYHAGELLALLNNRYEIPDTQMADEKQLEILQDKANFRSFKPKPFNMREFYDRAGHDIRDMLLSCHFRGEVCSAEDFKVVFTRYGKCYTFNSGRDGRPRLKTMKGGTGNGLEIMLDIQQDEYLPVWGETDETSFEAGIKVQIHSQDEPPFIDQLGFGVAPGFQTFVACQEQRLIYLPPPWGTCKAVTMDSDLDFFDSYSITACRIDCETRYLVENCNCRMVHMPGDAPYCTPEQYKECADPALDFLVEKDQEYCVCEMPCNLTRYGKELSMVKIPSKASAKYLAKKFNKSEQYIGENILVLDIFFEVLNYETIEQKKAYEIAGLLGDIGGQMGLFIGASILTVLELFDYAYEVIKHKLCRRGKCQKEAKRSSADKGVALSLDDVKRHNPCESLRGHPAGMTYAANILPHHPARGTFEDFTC
T1 sequence (O35240 whole entry): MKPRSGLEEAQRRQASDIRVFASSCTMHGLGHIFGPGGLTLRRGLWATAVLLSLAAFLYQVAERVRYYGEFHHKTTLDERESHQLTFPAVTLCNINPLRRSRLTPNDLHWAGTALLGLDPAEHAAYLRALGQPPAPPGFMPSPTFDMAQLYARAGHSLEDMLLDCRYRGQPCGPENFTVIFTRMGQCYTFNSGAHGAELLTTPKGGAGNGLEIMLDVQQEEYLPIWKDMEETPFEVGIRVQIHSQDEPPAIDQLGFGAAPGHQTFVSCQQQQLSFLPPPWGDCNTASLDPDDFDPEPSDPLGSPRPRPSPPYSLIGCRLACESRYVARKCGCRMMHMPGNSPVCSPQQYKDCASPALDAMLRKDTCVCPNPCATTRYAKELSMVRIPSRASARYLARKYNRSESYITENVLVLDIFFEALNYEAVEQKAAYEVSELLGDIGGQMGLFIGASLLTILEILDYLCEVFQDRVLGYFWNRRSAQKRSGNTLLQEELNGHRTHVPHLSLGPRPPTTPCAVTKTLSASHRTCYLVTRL
T2 sequence (Q16515 whole entry): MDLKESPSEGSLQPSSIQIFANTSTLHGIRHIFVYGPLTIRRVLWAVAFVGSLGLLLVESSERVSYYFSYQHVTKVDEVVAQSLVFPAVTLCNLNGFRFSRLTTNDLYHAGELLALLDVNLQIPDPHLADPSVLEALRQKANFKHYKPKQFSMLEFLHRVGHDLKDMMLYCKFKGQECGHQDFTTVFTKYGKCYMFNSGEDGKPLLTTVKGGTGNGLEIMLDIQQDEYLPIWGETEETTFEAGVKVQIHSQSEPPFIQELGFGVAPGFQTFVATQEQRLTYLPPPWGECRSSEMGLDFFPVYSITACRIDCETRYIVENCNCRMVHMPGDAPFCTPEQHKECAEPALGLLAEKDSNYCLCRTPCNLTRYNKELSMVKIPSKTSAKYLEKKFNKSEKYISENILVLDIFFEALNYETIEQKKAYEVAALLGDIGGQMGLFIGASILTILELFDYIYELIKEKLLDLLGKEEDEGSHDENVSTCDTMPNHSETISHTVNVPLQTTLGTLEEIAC

Molecule	function of ASIC3 channels (rat ASIC3)	function of ASIC2a channels (human ASIC2a)	function of ASIC1a channels (human ASIC1a)	urinary Na+ excretion (UNaV) [1]	regulation of airway surface liquid height in cultures lacking SPLUNC1 (NL HBECs)	regulation of airway surface liquid height in cultures lacking SPLUNC1 (NL HBECs; listed as recombinant SPLUNC1)	inhibition of trypsin cleavage of fluorogenic substrate BGAR-MCA (trypsin) [%]
GGLPVPLDQTLPLNVNPA [S18]	does not Affect the Function	does not Affect the Function	does not Affect the Function	induces natriuresis			
B1					restored	sufficient to restore ASL volume regulation	~10
